The values below are quoted from earlier work in patent US20130281394A1, “Chemosensory Receptor Ligand-Based Therapies” (ELCELYX THERAPEUTICS, INC., priority 2010, published 2013).

One data set addresses T1, sweet receptor (Homo sapiens, UniProt Q7RTX0+Q8TE23).
T1 sequence (Q8TE23 20-839): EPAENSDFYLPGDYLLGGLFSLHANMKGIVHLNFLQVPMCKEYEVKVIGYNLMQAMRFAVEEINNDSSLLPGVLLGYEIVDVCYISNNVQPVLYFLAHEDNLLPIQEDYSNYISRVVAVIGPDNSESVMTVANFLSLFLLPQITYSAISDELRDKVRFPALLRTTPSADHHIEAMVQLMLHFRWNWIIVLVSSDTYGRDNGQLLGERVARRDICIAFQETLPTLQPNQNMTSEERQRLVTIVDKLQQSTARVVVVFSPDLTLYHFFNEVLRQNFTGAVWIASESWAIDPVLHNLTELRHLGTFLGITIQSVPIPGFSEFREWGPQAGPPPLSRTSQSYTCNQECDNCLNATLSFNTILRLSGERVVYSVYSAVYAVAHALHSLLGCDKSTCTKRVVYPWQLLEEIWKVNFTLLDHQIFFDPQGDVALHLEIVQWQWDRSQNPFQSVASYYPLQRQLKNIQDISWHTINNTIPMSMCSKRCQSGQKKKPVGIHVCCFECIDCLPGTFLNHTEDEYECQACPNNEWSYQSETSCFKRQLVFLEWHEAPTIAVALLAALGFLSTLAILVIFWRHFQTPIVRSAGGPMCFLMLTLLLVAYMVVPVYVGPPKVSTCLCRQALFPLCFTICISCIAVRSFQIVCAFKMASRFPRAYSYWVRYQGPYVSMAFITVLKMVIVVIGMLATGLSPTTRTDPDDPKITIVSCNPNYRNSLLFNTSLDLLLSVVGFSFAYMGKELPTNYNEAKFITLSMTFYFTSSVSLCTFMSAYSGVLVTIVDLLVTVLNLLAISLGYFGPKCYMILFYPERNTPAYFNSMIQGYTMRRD
T1 sequence (Q7RTX0 21-852): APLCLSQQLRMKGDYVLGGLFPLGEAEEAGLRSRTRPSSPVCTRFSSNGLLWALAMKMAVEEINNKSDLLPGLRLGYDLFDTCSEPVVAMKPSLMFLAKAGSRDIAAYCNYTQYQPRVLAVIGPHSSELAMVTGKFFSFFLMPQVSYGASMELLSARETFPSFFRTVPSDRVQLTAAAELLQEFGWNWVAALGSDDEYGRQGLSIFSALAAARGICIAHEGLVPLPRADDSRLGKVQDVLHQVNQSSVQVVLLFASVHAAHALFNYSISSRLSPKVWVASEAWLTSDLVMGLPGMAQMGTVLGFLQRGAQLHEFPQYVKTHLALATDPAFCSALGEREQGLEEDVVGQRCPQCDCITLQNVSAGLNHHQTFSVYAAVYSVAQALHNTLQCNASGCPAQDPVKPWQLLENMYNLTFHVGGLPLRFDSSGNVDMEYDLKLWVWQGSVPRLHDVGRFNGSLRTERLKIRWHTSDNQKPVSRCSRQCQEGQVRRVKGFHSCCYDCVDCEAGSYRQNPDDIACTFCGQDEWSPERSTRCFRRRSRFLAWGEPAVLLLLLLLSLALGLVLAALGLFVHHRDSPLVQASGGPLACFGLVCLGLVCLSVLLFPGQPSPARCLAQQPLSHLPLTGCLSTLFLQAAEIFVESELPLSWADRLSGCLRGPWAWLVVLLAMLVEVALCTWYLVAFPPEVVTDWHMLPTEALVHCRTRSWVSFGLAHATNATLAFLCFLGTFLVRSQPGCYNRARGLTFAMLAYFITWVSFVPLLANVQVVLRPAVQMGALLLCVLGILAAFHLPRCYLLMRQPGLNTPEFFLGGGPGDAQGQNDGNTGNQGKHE
The following applies: relative sweetness on a weight comparison basis to sucrose (= 1.0); ranges: varied with the concentration of sucrose.

`C=CCC(=NOS(=O)(=O)O)S[C@@H]1O[C@H](CO)[C@@H](O)[C@H](O)[C@H]1O` (stereo in doubt) [Sinigrin]: in the data set on bitter receptor, the Taste quality result is recorded as “Bitter”. Regarding `C[S+]([O-])CCCN=C=S` (stereo not drawn) [3-Methyl-sulfinylpropyl isothiocyanate], the Taste quality result with bitter receptor is given as “Acrid mustard oils”. On to `C[S+]([O-])CCCCN=C=S` (stereo not drawn) [4-Methylsulfinyl butyl isothiocyanate], for which the Taste quality entry in the data set on bitter receptor is given as “Acrid mustard oils”. As for `C=CCN=C=S` [Allyl-isothiocyanate], the Taste quality result with bitter receptor is listed as “Acrid mustard oils;”. As for `S=C=NCc1ccccc1` [Benzyl isothiocyanate], in the data set with bitter receptor, the Taste quality entry was “Acrid mustard oils;”.

For `O=c1c(-c2ccc(O)cc2)coc2cc(O[C@@H]3O[C@H](CO)[C@@H](O)[C@H](O)[C@H]3O)ccc12` [Daidzin], in the data set on bitter receptor, the Taste quality result is given as “Astringent”. Turning to `O=C(O[C@@H]1Cc2c(O)cc(O)cc2O[C@@H]1c1ccc(O)c(O)c1)c1cc(O)c(O)c(O)c1` [Epicatechin gallate], the Taste quality entry in the data set with bitter receptor is “Bitter and astringent”. With `O=C(O[C@@H]1Cc2c(O)cc(O)cc2O[C@@H]1c1cc(O)c(O)c(O)c1)c1cc(O)c(O)c(O)c1` [Epigallocatechin gallate], the Taste quality entry in the data set with bitter receptor is on record as “Bitter with sweet”. Turning to `Oc1cc(O)c2c(c1)O[C@H](c1cc(O)c(O)c(O)c1)[C@H](O)C2` [Epigallocatechin], the Taste quality entry with bitter receptor was “Bitter with sweet”. Consider `CC1(C(=O)O)C=C2C3CCC4C5(CO)CCC(OC6OC(C(=O)O)C(O)C(O)C6OC6OC(C(=O)O)C(O)C(O)C6O)C(C)(C)C5CCC4(C)C3(C)CCC2(C)CC1` (stereo not drawn) [Periandrin III], for which the Sweetness/potency on sweet receptor is 92. For `CC1(C)[C@@H](O[C@@H]2O[C@H](C(=O)O)[C@@H](O)[C@H](O)[C@H]2O[C@@H]2O[C@H](C(=O)O)[C@@H](O)[C@H](O)[C@H]2O)CC[C@]2(C=O)[C@H]3CC[C@@H]4C5=C[C@@](C)(C(=O)O)CC[C@]5(C)CC[C@@]4(C)[C@]3(C)CC[C@@H]12` [Periandrin I], the Sweetness/potency at sweet receptor is listed as 90. Regarding `CC1(C(=O)O)C=C2C3CCC4C5(C=O)CCC(OC6OC(C(=O)O)C(O)C(O)C6OC6OCC(O)C(O)C6O)C(C)(C)C5CCC4(C)C3(C)CCC2(C)CC1` (stereo not drawn) [Periandrin V], at sweet receptor, the Sweetness/potency is 220. With `C=C(C)[C@@H]1CC=C(/C=N/O)CC1` [Perillartine], the Sweetness/potency on sweet receptor was 370. Consider `COc1ccc([C@H]2Cc3cccc(O)c3C(=O)O2)cc1O` [Phyllodulcin], for which the Sweetness/potency at sweet receptor was 400. As for `C=C(C)C1CCC2(C)C(CC(OC3OCC(O)C(O)C3O)C3C(C(C)(O)C/C=C/C(C)(C)O)CCC32C)C1(C)CCC(=O)O` (stereo not drawn) [Pterocaryoside B], at sweet receptor, the Sweetness/potency is listed as 100. As for `C=C1C[C@@]23CC[C@H]4[C@@](C)(CCC[C@@]4(C)C(=O)O[C@@H]4O[C@H](CO)[C@@H](O)[C@H](O)[C@H]4O[C@@H]4O[C@H](CO)[C@@H](O)[C@H](O)[C@H]4O)[C@@H]2CC[C@]1(O[C@@H]1O[C@H](CO)[C@@H](O)[C@H](O[C@@H]2O[C@H](CO)[C@@H](O)[C@H](O)[C@H]2O)[C@H]1O[C@@H]1O[C@H](CO)[C@@H](O)[C@H](O)[C@H]1O)C3` [Rebaudioside D], the Sweetness/potency at sweet receptor is given as 221. `C=C1C[C@@]23CC[C@H]4[C@@](C)(CCC[C@@]4(C)C(=O)O[C@@H]4O[C@H](CO)[C@@H](O)[C@H](O)[C@H]4O[C@@H]4O[C@H](CO)[C@@H](O)[C@H](O)[C@H]4O)[C@@H]2CC[C@]1(O[C@@H]1O[C@H](CO)[C@@H](O)[C@H](O)[C@H]1O[C@@H]1O[C@H](CO)[C@@H](O)[C@H](O)[C@H]1O)C3` [Rebaudioside E]: the Sweetness/potency on sweet receptor is 174.

As to `C=C1C[C@@]23CC[C@H]4[C@@](C)(CCC[C@@]4(C)C(=O)O[C@@H]4O[C@H](CO)[C@@H](O)[C@H](O)[C@H]4O)[C@@H]2CC[C@]1(O[C@@H]1O[C@H](CO)[C@@H](O)[C@H](O)[C@H]1O)C3` [Rubusoside], the Sweetness/potency at sweet receptor is 115. `Oc1ccc([C@H]2Oc3c(c(O)cc4c3[C@H]3c5c(O)cc(O)cc5O[C@@](c5ccc(O)cc5)(O4)[C@@H]3O)[C@H](c3c(O)cc(O)c4c3O[C@H](c3ccc(O)cc3)[C@@H](O)C4)[C@H]2O)cc1` [Selligueain A]: the Sweetness/potency on sweet receptor is 35. With `C[C@H](CC[C@@H](O[C@@H]1O[C@H](CO[C@@H]2O[C@H](CO)[C@@H](O)[C@H](O)[C@H]2O)[C@@H](O)[C@H](O)[C@H]1O[C@@H]1O[C@H](CO)[C@@H](O)[C@H](O)[C@H]1O)C(C)(C)O)[C@H]1CC[C@@]2(C)[C@@H]3CC=C4[C@@H](CC[C@H](O[C@@H]5O[C@H](CO)[C@@H](O)[C@H](O)[C@H]5O)C4(C)C)[C@]3(C)[C@H](O)C[C@]12C` [Siamenoside I], the Sweetness/potency at sweet receptor is 563. Consider `C=C1C[C@@]23CC[C@H]4[C@@](C)(CCC[C@@]4(C)C(=O)O)[C@@H]2CC[C@]1(O[C@@H]1O[C@H](CO)[C@@H](O)[C@H](O)[C@H]1O[C@@H]1O[C@H](CO)[C@@H](O)[C@H](O)[C@H]1O)C3` [Steviolbioside], for which, at sweet receptor, the Sweetness/potency is on record as 90.

`C=C1C[C@@]23CC[C@H]4[C@@](C)(CCC[C@@]4(C)C(=O)O[C@@H]4O[C@H](CO)[C@@H](O)[C@H](O)[C@H]4O)[C@@H]2CC[C@]1(O[C@@H]1O[C@H](CO)[C@@H](O)[C@H](O)[C@H]1O[C@@H]1O[C@H](CO)[C@@H](O)[C@H](O)[C@H]1O)C3` [Stevioside]: the Sweetness/potency on sweet receptor is 210.

Turning to `CC[C@@H](C)C(=O)O[C@@H](C)[C@]1(O)CC[C@]2(O)[C@@H]3CC[C@H]4C[C@@H](O[C@@H]5C[C@H](O)[C@H](O[C@H]6C[C@H](OC)[C@H](O[C@H]7C[C@@H](OC)[C@H](O[C@H]8C[C@@H](OC)[C@H](O[C@@H]9O[C@H](C)[C@@H](O[C@@H]%10O[C@H](CO)[C@@H](O)[C@H](O)[C@H]%10O)[C@H](OC)[C@H]9O)[C@@H](C)O8)[C@@H](C)O7)[C@@H](C)O6)[C@@H](C)O5)CC[C@]4(C)[C@H]3C[C@@H](OC(C)=O)[C@]12C` [Telosmoside A15], at sweet receptor, the Sweetness/potency was 1000. In the case of `O=C/C=C/c1ccccc1` [Trans-Cinnamaldehyde], the Sweetness/potency at sweet receptor is reported as 50. In the case of `C/C=C/c1ccc(OC)cc1` [trans-Anethole], on sweet receptor, the Sweetness/potency is reported as 13. For the compound Albiziasaponin B, the Sweetness/potency on sweet receptor is recorded as 600. In the case of Baiyunoside, the Sweetness/potency on sweet receptor was 500. Turning to “Brazzein (QDKCKKVYENYPVSKCQLANQCNYDCKLDKHARSGECFYDEKRNLQCICDYCEY; UniProt P56552 1-54, looked up) [sweet protein from Pentadiplandra brazzeana Baillon]”, in the data set with sweet receptor, the Sweetness/potency was 2,000. In the case of Carnosifloside V, the Sweetness/potency on sweet receptor was 51. Turning to Curculin, on sweet receptor, the Sweetness/potency was 550.

For Cyclocarioside A, the Sweetness/potency at sweet receptor is 200. Consider Cyclocaryoside I, for which the Sweetness/potency at sweet receptor is 250. With Monellin, at sweet receptor, the Sweetness/potency is 3,000. Take Pentadin: the Sweetness/potency on sweet receptor is 500. In the case of Periandrin II, the Sweetness/potency on sweet receptor is given as 95. Periandrin IV: the Sweetness/potency on sweet receptor is 85. In the case of Polypodoside A, on sweet receptor, the Sweetness/potency is recorded as 600. In the case of Pterocaryoside A, on sweet receptor, the Sweetness/potency is 50. Regarding Rebaudioside B, at sweet receptor, the Sweetness/potency is reported as 150. Consider Rebaudioside C, for which the Sweetness/potency at sweet receptor is recorded as 30. For Scandenoside R6, on sweet receptor, the Sweetness/potency is 54. Turning to Thaumatin, the Sweetness/potency at sweet receptor is 1,600.
